pIC50: −log10 of the molar value. Like-named read-outs stand apart in the source and are kept apart here.
Key:
[1] = molecular target: KRAS G12C (Homo sapiens, UniProt P01116, G12C); test: GDP-GTP exchange assay (KRAS_G12C exchange assay); assay type: biochemical; conditions: bodipy-loaded KRAS G12C 2.5 nM, SOS1 150 nM, 2 hours pre-incubation with inhibitor; read-out: G12C_exchange
Protocol: The inhibitor potency of the exemplified compounds was determined in a fluorescence based guanine nucleotide exchange assay, which measures the exchange of bodipy-GDP (fluorescently labeled GDP) for GppNHp (Non-hydrolyzable GTP analog) to generate the active state of KRAS in the presence of SOS1 (guanine nucleotide exchange factor). Inhibitors were serially diluted in DMSO and a volume of 0.1 μL was transferred to the wells of a black low volume 384-well plate. 5 μL/well volume of bodipy-loaded KRAS G12C diluted to 5 nM in assay buffer (25 mM Hepes pH 7.5, 50 mM NaCl, 10 mM MgCl2 and 0.01% Brij-35) was added to the plate and pre-incubated with inhibitor for 2 hours at ambient temperature. Appropriate controls (enzyme with no inhibitor or with a G12C inhibitor (AMG-510)) were included on the plate. The exchange was initiated by the addition of a 5 μL/well volume containing 1 mM GppNHp and 300 nM SOS1 in assay buffer. The 10 μL/well reaction concentration of the bodipy-loaded KRAS G12C, GppNHp, and SOS1 were 2.5 nM, 500 uM, and 150 nM, respectively. The reaction plates were incubated at ambient temperature for 2 hours, a time estimated for complete GDP-GTP exchange in the absence of inhibitor. For the KRAS G12D and G12V mutants, similar guanine nucleotide exchange assays were used with 2.5 nM as final concentration for the bodipy loaded KRAS proteins and with 4 hours and 3 hours incubation after adding GppNHp-SOS1 mixture for G12D and G12V respectively. A cyclic peptide described to selectively bind G12D mutant (Sakamoto et al., BBRC 484.3 (2017), 605-611) or internal compounds with confirmed binding were used as positive controls in the assay plates. Fluorescence intensities were measured on a PheraStar plate reader instrument (BMG Labtech) with excitation at 485 nm and emission at 520 nm.
Either GraphPad prism or Genedata Screener SmartFit was used to analyze the data. The IC50 values were derived by fitting the data to a four parameter logistic equation producing a sigmoidal dose-response curve with a variable Hill coefficient.

[2] = tested on: KRAS_G12C pERK; test: Cellular pERK HTRF assay (KRAS_G12C pERK assay); assay type: cell-based, human; conditions: KRAS G12C cells, 4 hours incubation with compound, read-out: G12C_pERK
Protocol: MIA PaCa-2 (KRAS G12C; ATCC® CRL-1420), NCI-H358 (KRAS G12C; ATCC® CRL-5807), A427 (KRAS G12D; ATCC® HTB53), HPAFII (KRAS G12D; ATCC® CRL-1997), YAPC (KRAS G12V; DSMZ ACC382), SW480 (KRAS G12V; ATCC® CRL-228) and NCI-H838 (KRAS WT; ATCC® CRL-5844) cells are purchased from ATCC and maintained in RPMI 1640 media supplemented with 10% FBS (Gibco/Life Technologies). The cells are plated at 5000 cells per well (8 uL) into Greiner 384-well low volume, flat-bottom, and tissue culture treated white plates and incubated overnight at […], 5% CO2. The next morning, test compound stock solutions are diluted in media at 3× the final concentration and 4 uL are added to the cells, with a final concentration of 0.1% of DMSO. The cells are incubated with the test compounds for 4 hours (G12C and G12V) or 2 hrs (G12D) at 37° C., 5% CO2. Four uL of 4× lysis buffer with blocking reagent (Cisbio) are added to each well and plates are rotated gently (300 rpm) for 30 minutes at room temperature. Four uL per well of Cisbio anti Phospho-ERK 1/2 d2 is mixed with anti Phospho-ERK 1/2 Cryptate (1:1), and added to each well, incubated overnight in the dark at room temperature. Plates are read on the Pherastar plate reader at 665 nm and 620 nm wavelengths. Data are analyzed in Genedata Screener using SmartFit for IC50 values.

[3] = tested on: KRAS_G12C pERK in MIA PaCa-2 cells; test: Whole Blood pERK1/2 HTRF assay (KRAS_G12C WB pERK assay); assay type: cell-based, human; conditions: Homo sapiens, compound in whole blood, 4 hours, read-out: G12C_WB_pERK
Protocol: MIA PaCa-2 cells (KRAS G12C; ATCC® CRL-1420), HPAF-II (KRAS G12D; ATCC® CRL-1997) and YAPC (KRAS G12V; DSMZ ACC382) are maintained in RPMI 1640 with 10% FBS (Gibco/Life Technologies). For MIA PaCa-2 assay, cells are seeded into 96 well tissue culture plates (Corning #3596) at 25000 cells per well in 100 uL media and cultured for 2 days at 37° C., 5% CO2 before the assay. For HPAF-II and YAPC assay, cells are seeded in 96 well tissue culture plates at 50000 cells per well in 100 uL media and cultured for 1 day before the assay. Whole Blood are added to the 1 uL dots of compounds (prepared in DMSO) in 96 well plates and mixed gently by pipetting up and down so that the concentration of the compound in blood is 1× of desired concentration, in 0.5% DMSO. The media is aspirated from the cells and 50 uL per well of whole blood with test compound is added and incubated for 4 hours for MIA PaCa and YAPC assay; or 2 hours for HPAF-II assay, respectively at 37° C., 5% CO2. After dumping the blood, the plates are gently washed twice by adding PBS to the side of the wells and dumping the PBS from the plate onto a paper towel, tapping the plate to drain well. Fifty ul/well of 1× lysis buffer #1 (Cisbio) with blocking reagent (Cisbio) and Benzonase nuclease (Sigma Cat #E1014-5KU, 1:10000 final concentration) is then added and incubated at room temperature for 30 minutes with shaking (250 rpm). Following lysis, 16 uL of lysate is transferred into 384-well Greiner small volume white plate using an Assist Plus (Integra Biosciences, NH). Four uL of 1:1 mixture of anti Phospho-ERK 1/2 d2 and anti Phospho-ERK 1/2 Cryptate (Cisbio) is added to the wells using the Assist Plus and incubated at room temperature overnight in the dark. Plates are read on the Pherastar plate reader at 665 nm and 620 nm wavelengths. Data are analyzed in Genedata Screener using SmartFit for IC50 values.

Chain of KRAS G12C (P01116 1-188 isoform P01116-2 G12C): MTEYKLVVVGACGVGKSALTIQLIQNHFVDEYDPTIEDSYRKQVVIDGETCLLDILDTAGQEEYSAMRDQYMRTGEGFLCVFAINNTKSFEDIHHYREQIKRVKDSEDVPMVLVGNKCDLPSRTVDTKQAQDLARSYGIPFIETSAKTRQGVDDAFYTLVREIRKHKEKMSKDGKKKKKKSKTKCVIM

Row | pIC50 [1] | pIC50 [2] | pIC50 ([2]; Homo sapiens, 4 h) | pIC50 [3] | Structure (SMILES)
1 | ≥ 7.30 | 7.00 to 7.30 | – | – | CN(C)C1(C)CN(c2nc3c(F)c(-c4ccc(F)c5cccnc45)c(C(F)(F)F)cc3c3c2nnn3[C@H]2CCN(C(=O)/C=C/CF)[C@H](CC#N)C2)C1 (single isomer, unassigned) [Example 1b]
2 | ≥ 7.30 | 7.00 to 7.30 | – | – | COc1c(C)cccc1-c1c(C(F)(F)F)cc2c(nc(N3CC(C)(N(C)C)C3)c3nnn([C@H]4CCN(C(=O)/C=C/CF)[C@H](CC#N)C4)c32)c1F (single isomer, unassigned) [Example 2b]
3 | ≥ 7.30 | ≥ 7.30 | – | – | COc1c(Cl)cccc1-c1c(C(F)(F)F)cc2c(nc(N3CC(C)(N(C)C)C3)c3nnn([C@H]4CCN(C(=O)/C=C/CF)[C@H](CC#N)C4)c32)c1F (single isomer, unassigned) [Example 3b]
4 | ≥ 7.30 | ≥ 7.30 | – | – | C[C@H](Oc1nc2c(F)c(-c3ccc(F)c4cccnc34)c(C(F)(F)F)cc2c2c1nnn2[C@H]1CCN(C(=O)/C=C/CF)[C@H](CC#N)C1)[C@@H]1CCCN1C (single isomer, unassigned) [Example 4b]
5 | ≥ 7.30 | 7.00 to 7.30 | – | – | C=CC(=O)N1CCC(n2nnc3c(O[C@@H](C)[C@@H]4CCCN4C)nc4c(F)c(-c5ccc(F)c6cccnc56)c(C(F)(F)F)cc4c32)CC1 (single isomer, unassigned) [Example 5b]
6 | ≥ 7.30 | – | 6.00 to 7.00 | – | C=CC(=O)N1CCC(n2nnc3c(O[C@@H](C)[C@@H]4CCCN4C)nc4c(F)c(-c5cccc6cccc(C#N)c56)c(C)cc4c32)CC1 (single isomer, unassigned) [Example 11a]
7 | 7.00 to 7.30 | – | – | – | C=CC(=O)N1CC[C@H](n2nnc3c(O[C@@H](C)[C@@H]4CCCN4C)nc4c(F)c(-c5cccc6cccc(C#N)c56)c(C)cc4c32)C[C@H]1C (single isomer, unassigned) [Example 14a]
8 | 6.00 to 7.00 | – | – | – | C=C(F)C(=O)N1CC[C@H](n2nnc3c(N4CC(N(C)CC)C4)nc4c(F)c(-c5c(C)c(C)cc6[nH]ncc56)c(C)cc4c32)C[C@H]1CC#N (single isomer, unassigned) [Example 15b]
9 | ≥ 7.30 | – | 6.00 to 7.00 | – | Cc1cc2c(nc(O[C@@H](C)[C@@H]3CCCN3C)c3nnn(C4CCN(C(=O)/C=C/CF)CC4)c32)c(F)c1-c1cccc2cccc(C#N)c12 (single isomer, unassigned) [Example 16a]
10 | ≥ 7.30 | – | ≥ 7.30 | 7.00 to 7.30 | C=C(F)C(=O)N1CC[C@H](n2nnc3c(N4CC(C)(N(C)C)C4)nc4c(F)c(-c5cccc6cccc(C#N)c56)c(C)cc4c32)C[C@H]1CC#N (single isomer, unassigned) [Example 17a]
11 | 6.00 to 7.00 | – | – | – | C=C(F)C(=O)N1CC[C@H](n2nnc3c(N4CC(C)(N(C)C)C4)nc4c(F)c(-c5cccc6cccc(C#N)c56)c(C)cc4c32)C[C@H]1CC#N (single isomer, unassigned) [Example 17b]
12 | ≥ 7.30 | 6.00 to 7.00 | – | – | COC/C=C/C(=O)N1CC[C@H](n2nnc3c(N4CC(C)(N(C)C)C4)nc4c(Cl)c(-c5ccc(F)c6cccnc56)c(Cl)cc4c32)C[C@H]1CC#N (single isomer, unassigned) [Example 18b]
13 | ≥ 7.30 | ≥ 7.30 | – | – | CN(C)C1(C)CN(c2nc3c(Cl)c(-c4ccc(F)c5cccnc45)c(Cl)cc3c3c2nnn3[C@H]2CCN(C(=O)/C=C/CF)[C@H](CC#N)C2)C1 (single isomer, unassigned) [Example 19b]
14 | 7.00 to 7.30 | – | – | – | C=C(F)C(=O)N1CC[C@H](n2nnc3c(O[C@@H](C)[C@@H]4CCCN4C)nc4c(F)c(-c5c(C)ncc6ccccc56)c(C)cc4c32)C[C@H]1CC#N (single isomer, unassigned) [Example 23a]
15 | ≥ 7.30 | – | ≥ 7.30 | ≥ 7.30 | C=C(F)C(=O)N1CC[C@H](n2nnc3c(O[C@@H](C)[C@@H]4CCCN4C)nc4c(F)c(-c5c(C)ncc6ccccc56)c(C)cc4c32)C[C@H]1CC#N (single isomer, unassigned) [Example 23b]
16 | ≥ 7.30 | – | 7.00 to 7.30 | – | COC/C=C/C(=O)N1CC[C@H](n2nnc3c(O[C@@H](C)[C@@H]4CCCN4C)nc4c(F)c(-c5c(C)ncc6ccccc56)c(C)cc4c32)C[C@H]1CC#N (single isomer, unassigned) [Example 24a]
17 | ≥ 7.30 | ≥ 7.30 | – | – | C=C(F)C(=O)N1CC[C@H](n2nnc3c(O[C@@H](C)[C@@H]4CCCN4C)nc4c(F)c(-c5c(F)ccc6ccc(C)nc56)c(C)cc4c32)C[C@H]1CC#N (single isomer, unassigned) [Example 25b]
18 | 6.00 to 7.00 | – | – | – | C=CC(=O)N1CC[C@H](n2nnc3c(O[C@@H](C)[C@@H]4CCCN4C)nc4c(F)c(-c5cccc6c5c(CC#N)nn6C)c(C)cc4c32)C[C@H]1C (single isomer, unassigned) [Example 28a]
19 | 6.00 to 7.00 | – | – | – | C=CC(=O)N1CC[C@H](n2nnc3c(O[C@@H](C)[C@@H]4CCCN4C)nc4c(F)c(-c5cccc6c5c(CC#N)cn6C)c(C)cc4c32)C[C@H]1C (single isomer, unassigned) [Example 31a]
20 | 7.00 to 7.30 | – | – | – | C=CC(=O)N1CCC(n2nnc3c(O[C@@H](C)[C@@H]4CCCN4C)nc4c(F)c(-c5cccc6c5c(CC#N)cn6C)c(C)cc4c32)CC1 (single isomer, unassigned) [Example 32a]
21 | 6.00 to 7.00 | – | – | – | C=C(F)C(=O)N1CC[C@H](n2nnc3c(N4CC(C)(N(C)CC)C4)nc4c(F)c(-c5c(C)c(C)cc6[nH]ncc56)c(Cl)cc4c32)C[C@H]1CC#N (single isomer, unassigned) [Example 33b]
22 | ≥ 7.30 | – | ≥ 7.30 | – | COC/C=C/C(=O)N1CC[C@H](n2nnc3c(O[C@@H](C)[C@@H]4CCCN4C)nc4c(F)c(-c5c(F)cccc5OC)c(C)cc4c32)C[C@H]1CC#N (single isomer, unassigned) [Example 34a]
23 | 6.00 to 7.00 | – | – | – | C=C(F)C(=O)N1CC[C@H](n2nnc3c(N4CC(C)(N(C)CC)C4)nc4c(F)c(-c5c(C)c(F)cc6[nH]ncc56)c(Cl)cc4c32)C[C@H]1CC#N (single isomer, unassigned) [Example 35b]

Reference: patent US12441727B2, “Tricyclic compounds as inhibitors of KRAS” (Incyte Corporation, priority 2021, dated 2025)
